# Source: US8614054B2, “Laser scanning cytometry mediated analysis of therapeutic efficacy in tumors” (Board of Regents, The University of Texas System, priority 2000, dated 2013)
# Legend:
# [1] = system: breast tumor cells; conditions: breast cancer patients, following neoadjuvant chemotherapy (FIG. 14)
# Method: FIGS. 14A-E—Biopsies taken from breast cancer patients pre and post-treatment (24, 48, 66 hours) following neoadjuvant chemotherapy were processed and stained for fluorescent TUNEL. The number of TUNEL positive cells were counted and results are represented as a percent of total cells counted. FIGS. 14F-H—Biopsies taken from breast cancer patients pre, 24, and 48 hours following neoadjuvant chemotherapy were processed and stained for fluorescent TUNEL. FIG. 14F—Representative image of tumor cell apoptosis in a human breast tumor biopsy pre- and post-chemotherapy (48 hrs.) before it is scanned by the LSC. […] FIG. 14G—Representative image of tumor cell apoptosis in a human breast tumor biopsy pre- and post-chemotherapy (48 hrs.) before it is scanned by the LSC. […] FIG. 14H—Bar graph showing the percent change in apoptotic tumor cells post-chemotherapy (24 & 48 hrs.).
# [2] = system: endothelial cells; assay: LSC quantification of endothelial cell density (ED) in tumor biopsies; type: in vivo, human; conditions: following 56 days of treatment
# Method: FIGS. 17A-B—FIG. 17A Is a diagram showing the concept of quantifying endothelial cells in a tumor biopsy using the LSC. The LSC is used to count endothelial and tumor cells independently in a biopsy. Endothelial cell density (ED) is calculated by dividing the total number of endothelial cells by the total number of tumor cells. FIG. 17B Graph showing that Endostatin decreased ED 1.3 fold following 56 days of treatment.
# (§1) After the scan is complete, the gates are set on the scattergram so that the collected data can be analyzed. Relocation of a cell is used to visualize which cells are positive, i.e. CD31 and/or TUNEL positive. Visualization allows the gate on the scattergram to be moved so that the positive cells fall in the appropriate quadrant. The data file can be replayed to obtain the number of cells in each quadrant that are representative of the total percent of all cells counted. […] For BVD, the instruments software is set to contour on CD31 fluorescence. […] The instrument then scans the same area but counts the number of blood vessels, i.e. a single vessel is counted by contiguous fluorescent light. […] BVD can be calculated for that sample by dividing the blood vessel count by the total number of tumor endothelial cells. Endothelial cell density is determined by dividing the total number of endothelial cells by the total number of tumor cells.
# [3] = system: tumor cells; assay: LSC analysis of tumor cell death in patient biopsies pre and post-treatment with endostatin; type: in vivo, human; conditions: for change in tumor cell death: pre vs post-treatment
# Excerpt: Tumor specimens or patient biopsies are obtained prior to and several time points post-treatment such as 1, 3, and 7 days or more. Tissue sections are stained using an immunofluorescent double-labeling technique which permits the simultaneous detection of endothelial cells and fluorescent markers of apoptosis such as TUNEL or caspase activity. The tissue sections are scanned by the LSC and cell data is collected by the instrument's software. For the first scan, the Wincyte software is setup by the user to contour on the cell nuclei based on propidium iodide staining. Contouring on the cell nuclei provides the total cell number of the tissue specimen and creates a ‘tissue map’ which permits selective gating of the tumor cells. In addition, contouring on the cell nuclei permits the software to identify endothelial cells (based on CD31 and/or CD34, Pharmingen, Inc., fluorescent staining) and/or TUNEL positive cells (based on fluorescent TUNEL, Promega, Inc.). […] A substantial increase in endothelial cell death post-treatment will indicate drug efficacy to induce apoptosis in tumor endothelial cells. Subsequent to endothelial cell death is the decay of the tumor vasculature. For the second scan, the Wincyte software is setup by the user to contour on the blood vessels of the tumor. The contouring is based on the fluorescence of the endothelial cell markers (CD31 and/or CD34). […] If the treatment targets the tumor vasculature, the number of blood vessels in the tumor will be dramatically lower post-treatment.
# Biopsies at different tumor sites were obtained from each of the five patients prior to and after treatment. The biopsies were stained with TUNEL and cy5 labeled antibody to CD31/[…]. […] FIGS. 8-9 represent LSC data from two of the patients. […] The data obtained from contouring on the blood vessels is shown in FIG. 12 where a representative image of blood vessel staining (CD31) is shown.
# This gives a difference of 0.23. The 95% CI for this difference is (0.00,0.47), p=0.050 and is significant.
# [4] = system: tumor endothelial cells; assay: LSC analysis of tumor endothelial cell death in patient biopsies pre and post-treatment with endostatin; type: in vivo, human
# Excerpt: (§2) Tumor specimens or patient biopsies are obtained prior to and several time points post-treatment such as 1, 3, and 7 days or more. Tissue sections are stained using an immunofluorescent double-labeling technique which permits the simultaneous detection of endothelial cells and fluorescent markers of apoptosis such as TUNEL or caspase activity. The tissue sections are scanned by the LSC and cell data is collected by the instrument's software. For the first scan, the Wincyte software is setup by the user to contour on the cell nuclei based on propidium iodide staining. Contouring on the cell nuclei provides the total cell number of the tissue specimen and creates a ‘tissue map’ which permits selective gating of the tumor cells. In addition, contouring on the cell nuclei permits the software to identify endothelial cells (based on CD31 and/or CD34, Pharmingen, Inc., fluorescent staining) and/or TUNEL positive cells (based on fluorescent TUNEL, Promega, Inc.). […] A substantial increase in endothelial cell death post-treatment will indicate drug efficacy to induce apoptosis in tumor endothelial cells. Subsequent to endothelial cell death is the decay of the tumor vasculature. For the second scan, the Wincyte software is setup by the user to contour on the blood vessels of the tumor. The contouring is based on the fluorescence of the endothelial cell markers (CD31 and/or CD34). […]
# [5] = system: tumor vasculature; assay: LSC-mediated blood vessel contouring (blood vessel density) of patient biopsies pre and post-treatment with endostatin; type: in vivo, human
# Method: (§3) Blood vessel density is defined herein as the number of blood vessels as determined from analyzing the fluorescence emission of markers bound to the endothelial cells divided by the total number of cells in the tumor as determined from analyzing the fluorescence emission of markers bound to the cell nuclei. Endothelial cell density is measured because it is a more sensitive marker. Breaks in fluorescence of the endothelial cell stain will delimitate individual blood vessels.
# After the scan is complete, the gates are set on the scattergram so that the collected data can be analyzed. Relocation of a cell is used to visualize which cells are positive, i.e. CD31 and/or TUNEL positive. Visualization allows the gate on the scattergram to be moved so that the positive cells fall in the appropriate quadrant. The data file can be replayed to obtain the number of cells in each quadrant that are representative of the total percent of all cells counted. […] For BVD, the instruments software is set to contour on CD31 fluorescence. In Examples 2-7, this is by selecting the long red filter during the setup. The instrument then scans the same area but counts the number of blood vessels, i.e. a single vessel is counted by contiguous fluorescent light. […] BVD can be calculated for that sample by dividing the blood vessel count by the total number of tumor endothelial cells. Endothelial cell density is determined by dividing the total number of endothelial cells by the total number of tumor cells.
# Tumor specimens or patient biopsies are obtained prior to and several time points post-treatment such as 1, 3, and 7 days or more. Tissue sections are stained using an immunofluorescent double-labeling technique which permits the simultaneous detection of endothelial cells and fluorescent markers of apoptosis such as TUNEL or caspase activity. The tissue sections are scanned by the LSC and cell data is collected by the instrument's software. […] The contouring is based on the fluorescence of the endothelial cell markers (CD31 and/or CD34). […]
# [6] = system: tumor vasculature; assay: LSC-mediated blood vessel contouring (blood vessel density) in mouse tumors; type: in vivo; conditions: treated mouse tumor, Cy5 label; untreated mouse tumor 52%
# Method: as §3
# as §1, with “TUNEL positive. […] The data” for “TUNEL positive. Visualization allows the gate on the scattergram to be moved so that the positive cells fall in the appropriate quadrant. The data”, “tumor cells. […]” for “tumor cells.”
# [7] = system: tumor endothelial cells; assay: LSC analysis of endothelial cell death (CD31/TUNEL double staining) in treated mouse tumors; type: in vivo; conditions: mouse liver metastasis model, treated vs untreated tumors
# Excerpt: as §2
compound,measurement,setting,value
CC(=O)O[C@H]1C(=O)[C@@]2(C)[C@H]([C@H](OC(=O)c3ccccc3)[C@]3(O)C[C@H](OC(=O)[C@H](O)[C@@H](NC(=O)c4ccccc4)c4ccccc4)C(C)=C1C3(C)C)[C@]1(OC(C)=O)CO[C@@H]1C[C@@H]2O [taxol],number of apoptotic tumor cells,[1],dramatic increase
endostatin,decrease of endothelial cell density (ED),[2],1.3 fold
same,difference in change of tumor cell death between doses,"[3]; >60 mg vs <60 mg, 95% CI (0.00,0.47), p=0.050, significant",0.23
same,change in tumor cell death,[3]; dose of <60 mg,0.02
same,change in tumor cell death,[3]; dose of >60 mg,0.26
same,apoptotic tumor cells,"[3]; patients treated for two months, pre vs post-treatment (FIG. 10)",two out of four patients had a dramatic increase
same,effect of dosing on tumor endothelial cell death,[4]; <60 mg vs >60 mg,not significant
same,apoptotic endothelial cells,"[4]; patients treated for two months, pre vs post-treatment (FIG. 11)",two out of four patients had a dramatic increase
same,effect of dosing on blood vessel density,[5]; <60 mg vs >60 mg,not significant
same,blood vessel density,"[5]; Patient 1, treated for two months (FIG. 13)",dramatic decrease
same,BVD post-treatment,"[5]; patient biopsy post-treatment with endostatin, pre-treatment BVD 53%",28%
Cc1[nH]c(/C=C2\C(=O)Nc3ccccc32)c(C)c1CCC(=O)O [SU6668],blood vessel density,[6],55%
same,endothelial cell death,[7],significant endothelial cell death
